Key:
Format in all cases: ADME
[1] = The drug is tested on Bifidobacterium longum strain: DSM20088 for biotransformation under anaerobic condition. The drug concentrations were measured over 6 timepoints collected between 0 and 12 hours of incubation by liquid-chromatography-coupled mass spectrometry (LC–MS); design: dose 5 uM, timepoint 0, 1.5, 3, 6, 9, 12 hours; conditions: 5 µM
[2] = The drug is tested on Bacteroides ovatus strain: ATCC 8483 for biotransformation under anaerobic condition. The drug concentrations were measured over 6 timepoints collected between 0 and 12 hours of incubation by liquid-chromatography-coupled mass spectrometry (LC–MS); design: dose 5 uM, timepoint 0, 1.5, 3, 6, 9, 12 hours; conditions: 5 µM
[3] = The drug is tested on Capnocytophaga ochracea strain: DSM7271 for biotransformation under anaerobic condition. The drug concentrations were measured over 6 timepoints collected between 0 and 12 hours of incubation by liquid-chromatography-coupled mass spectrometry (LC–MS); design: dose 5 uM, timepoint 0, 1.5, 3, 6, 9, 12 hours; conditions: 5 µM
[4] = The drug is tested on Odoribacter splanchnicus strain: DSM20712 for biotransformation under anaerobic condition. The drug concentrations were measured over 6 timepoints collected between 0 and 12 hours of incubation by liquid-chromatography-coupled mass spectrometry (LC–MS); design: dose 5 uM, timepoint 0, 1.5, 3, 6, 9, 12 hours; conditions: 5 µM
[5] = The drug is tested on Parabacteroides distasonis strain: DSM20701 for biotransformation under anaerobic condition. The drug concentrations were measured over 6 timepoints collected between 0 and 12 hours of incubation by liquid-chromatography-coupled mass spectrometry (LC–MS); design: dose 5 uM, timepoint 0, 1.5, 3, 6, 9, 12 hours; conditions: 5 µM
[6] = The drug is tested on Parabacteroides merdae strain: DSM19495 for biotransformation under anaerobic condition. The drug concentrations were measured over 6 timepoints collected between 0 and 12 hours of incubation by liquid-chromatography-coupled mass spectrometry (LC–MS); design: dose 5 uM, timepoint 0, 1.5, 3, 6, 9, 12 hours; conditions: 5 µM
[7] = The drug is tested on Prevotella copri strain: DSM18205 for biotransformation under anaerobic condition. The drug concentrations were measured over 6 timepoints collected between 0 and 12 hours of incubation by liquid-chromatography-coupled mass spectrometry (LC–MS); design: dose 5 uM, timepoint 0, 1.5, 3, 6, 9, 12 hours; conditions: segatella copri, 5 µM
[8] = The drug is tested on Dorea formicigenerans strain: DSM3992 for biotransformation under anaerobic condition. The drug concentrations were measured over 6 timepoints collected between 0 and 12 hours of incubation by liquid-chromatography-coupled mass spectrometry (LC–MS); design: dose 5 uM, timepoint 0, 1.5, 3, 6, 9, 12 hours; conditions: 5 µM
[9] = The drug is tested on Gemella haemolysans strain: DSM107751 for biotransformation under anaerobic condition. The drug concentrations were measured over 6 timepoints collected between 0 and 12 hours of incubation by liquid-chromatography-coupled mass spectrometry (LC–MS); design: dose 5 uM, timepoint 0, 1.5, 3, 6, 9, 12 hours; conditions: 5 µM
[10] = The drug is tested on Gemella morbillorum strain: DSM20572 for biotransformation under anaerobic condition. The drug concentrations were measured over 6 timepoints collected between 0 and 12 hours of incubation by liquid-chromatography-coupled mass spectrometry (LC–MS); design: dose 5 uM, timepoint 0, 1.5, 3, 6, 9, 12 hours; conditions: 5 µM
[11] = The drug is tested on Lactobacillus fermentum strain: DSM20052 for biotransformation under anaerobic condition. The drug concentrations were measured over 6 timepoints collected between 0 and 12 hours of incubation by liquid-chromatography-coupled mass spectrometry (LC–MS); design: dose 5 uM, timepoint 0, 1.5, 3, 6, 9, 12 hours; conditions: limosilactobacillus fermentum, 5 µM
[12] = The drug is tested on Streptococcus sanguinis strain: DSM20567 for biotransformation under anaerobic condition. The drug concentrations were measured over 6 timepoints collected between 0 and 12 hours of incubation by liquid-chromatography-coupled mass spectrometry (LC–MS); design: dose 5 uM, timepoint 0, 1.5, 3, 6, 9, 12 hours; conditions: 5 µM
[13] = The drug is tested on Escherichia coli strain: DSM27469 for biotransformation under anaerobic condition. The drug concentrations were measured over 6 timepoints collected between 0 and 12 hours of incubation by liquid-chromatography-coupled mass spectrometry (LC–MS); design: dose 5 uM, timepoint 0, 1.5, 3, 6, 9, 12 hours; conditions: 5 µM
[14] = The drug is tested on Bifidobacterium longum strain: DSM20088 for biotransformation under microaerobic condition. The drug concentrations were measured over 6 timepoints collected between 0 and 12 hours of incubation by liquid-chromatography-coupled mass spectrometry (LC–MS); design: dose 5 uM, timepoint 0, 1.5, 3, 6, 9, 12 hours; conditions: 5 µM
[15] = The drug is tested on Lactobacillus fermentum strain: DSM20052 for biotransformation under microaerobic condition. The drug concentrations were measured over 6 timepoints collected between 0 and 12 hours of incubation by liquid-chromatography-coupled mass spectrometry (LC–MS); design: dose 5 uM, timepoint 0, 1.5, 3, 6, 9, 12 hours; conditions: limosilactobacillus fermentum, 5 µM
[16] = The drug is tested on Escherichia coli strain: DSM27469 for biotransformation under microaerobic condition. The drug concentrations were measured over 6 timepoints collected between 0 and 12 hours of incubation by liquid-chromatography-coupled mass spectrometry (LC–MS); design: dose 5 uM, timepoint 0, 1.5, 3, 6, 9, 12 hours; conditions: 5 µM
[17] = The drug is tested on the gut metagenome community of A-05 with ENA study accession number: PRJEB31790 for biotransformation under anaerobic condition. The drug concentrations were measured over 7 timepoints collected between 0 and 12 hours of incubation by liquid-chromatography-coupled mass spectrometry (LC–MS); design: dose 5 uM, timepoint 0, 0.75, 1.5, 3, 6, 9, 12 hours; conditions: 5 µM
[18] = The drug is tested on the gut metagenome community of A-09 with ENA study accession number: PRJEB31790 for biotransformation under anaerobic condition. The drug concentrations were measured over 7 timepoints collected between 0 and 12 hours of incubation by liquid-chromatography-coupled mass spectrometry (LC–MS); design: dose 5 uM, timepoint 0, 0.75, 1.5, 3, 6, 9, 12 hours; conditions: 5 µM
[19] = The drug is tested on the gut metagenome community of A-10 with ENA study accession number: PRJEB31790 for biotransformation under anaerobic condition. The drug concentrations were measured over 7 timepoints collected between 0 and 12 hours of incubation by liquid-chromatography-coupled mass spectrometry (LC–MS); design: dose 5 uM, timepoint 0, 0.75, 1.5, 3, 6, 9, 12 hours; conditions: 5 µM
[20] = The drug is tested on the gut metagenome community of P-03 with ENA study accession number: PRJEB31790 for biotransformation under anaerobic condition. The drug concentrations were measured over 7 timepoints collected between 0 and 12 hours of incubation by liquid-chromatography-coupled mass spectrometry (LC–MS); design: dose 5 uM, timepoint 0, 0.75, 1.5, 3, 6, 9, 12 hours; conditions: 5 µM
[21] = The drug is tested on the gut metagenome community of T-03 with ENA study accession number: PRJEB31790 for biotransformation under anaerobic condition. The drug concentrations were measured over 7 timepoints collected between 0 and 12 hours of incubation by liquid-chromatography-coupled mass spectrometry (LC–MS); design: dose 5 uM, timepoint 0, 0.75, 1.5, 3, 6, 9, 12 hours; conditions: 5 µM
[22] = The drug is tested on the gut metagenome community of A-01 with ENA study accession number: PRJEB31790 for biotransformation under microaerobic condition. The drug concentrations were measured over 7 timepoints collected between 0 and 12 hours of incubation by liquid-chromatography-coupled mass spectrometry (LC–MS); design: dose 5 uM, timepoint 0, 0.75, 1.5, 3, 6, 9, 12 hours; conditions: 5 µM
[23] = The drug is tested on the gut metagenome community of A-09 with ENA study accession number: PRJEB31790 for biotransformation under microaerobic condition. The drug concentrations were measured over 7 timepoints collected between 0 and 12 hours of incubation by liquid-chromatography-coupled mass spectrometry (LC–MS); design: dose 5 uM, timepoint 0, 0.75, 1.5, 3, 6, 9, 12 hours; conditions: 5 µM
[24] = The drug is tested on the gut metagenome community of A-10 with ENA study accession number: PRJEB31790 for biotransformation under microaerobic condition. The drug concentrations were measured over 7 timepoints collected between 0 and 12 hours of incubation by liquid-chromatography-coupled mass spectrometry (LC–MS); design: dose 5 uM, timepoint 0, 0.75, 1.5, 3, 6, 9, 12 hours; conditions: 5 µM
[25] = The drug is tested on the gut metagenome community of T-01 with ENA study accession number: PRJEB31790 for biotransformation under microaerobic condition. The drug concentrations were measured over 7 timepoints collected between 0 and 12 hours of incubation by liquid-chromatography-coupled mass spectrometry (LC–MS); design: dose 5 uM, timepoint 0, 0.75, 1.5, 3, 6, 9, 12 hours; conditions: 5 µM
[26] = The drug is tested on the gut metagenome community of T-02 with ENA study accession number: PRJEB31790 for biotransformation under microaerobic condition. The drug concentrations were measured over 7 timepoints collected between 0 and 12 hours of incubation by liquid-chromatography-coupled mass spectrometry (LC–MS); design: dose 5 uM, timepoint 0, 0.75, 1.5, 3, 6, 9, 12 hours; conditions: 5 µM

Compound	Bacterial Biotransformation [1]	Bacterial Biotransformation [2]	Bacterial Biotransformation [3]	Bacterial Biotransformation [4]	Bacterial Biotransformation [5]	Bacterial Biotransformation [6]	Bacterial Biotransformation [7]	Bacterial Biotransformation [8]	Bacterial Biotransformation [9]	Bacterial Biotransformation [10]	Bacterial Biotransformation [11]	Bacterial Biotransformation [12]	Bacterial Biotransformation [13]	Bacterial Biotransformation [14]	Bacterial Biotransformation [15]	Bacterial Biotransformation [16]	Bacterial Biotransformation [17]	Bacterial Biotransformation [18]	Bacterial Biotransformation [19]	Bacterial Biotransformation [20]	other results
C[C@]12C=CC(=O)C=C1CC[C@@H]1[C@@H]2[C@@H](O)C[C@@]2(C)[C@H]1CC[C@]2(O)C(=O)CO [PREDNISOLONE]	Compound NOT metabolized	Compound NOT metabolized	Compound NOT metabolized	Compound NOT metabolized	Compound NOT metabolized	Compound NOT metabolized	Compound NOT metabolized	Compound NOT metabolized	Compound NOT metabolized	Compound NOT metabolized	Compound NOT metabolized	Compound NOT metabolized	Compound NOT metabolized	Compound NOT metabolized	Compound NOT metabolized	Compound NOT metabolized	Compound metabolized	Compound metabolized	Compound metabolized	Compound metabolized	Bacterial Biotransformation [21]: Compound NOT metabolized; Bacterial Biotransformation [22]: Compound metabolized; Bacterial Biotransformation [23]: Compound metabolized; Bacterial Biotransformation [24]: Compound metabolized; Bacterial Biotransformation [25]: Compound NOT metabolized; Bacterial Biotransformation [26]: Compound metabolized
C[C@]12C=CC(=O)C=C1CC[C@@H]1[C@@H]2C(=O)C[C@@]2(C)[C@H]1CC[C@]2(O)C(=O)CO [PREDNISONE]	Compound NOT metabolized	Compound NOT metabolized	Compound NOT metabolized	Compound NOT metabolized	Compound NOT metabolized	Compound NOT metabolized	Compound NOT metabolized	Compound NOT metabolized	Compound NOT metabolized	Compound NOT metabolized	Compound NOT metabolized	Compound NOT metabolized	Compound NOT metabolized	Compound NOT metabolized	Compound NOT metabolized	Compound NOT metabolized	Compound metabolized	Compound metabolized	Compound metabolized	Compound metabolized	Bacterial Biotransformation [21]: Compound NOT metabolized; Bacterial Biotransformation [22]: Compound metabolized; Bacterial Biotransformation [23]: Compound metabolized; Bacterial Biotransformation [24]: Compound metabolized; Bacterial Biotransformation [25]: Compound metabolized; Bacterial Biotransformation [26]: Compound metabolized
CNC(=C[N+](=O)[O-])NCCSCc1ccc(CN(C)C)o1 [RANITIDINE]	Compound NOT metabolized	Compound metabolized	Compound NOT metabolized	Compound NOT metabolized	Compound NOT metabolized	Compound NOT metabolized	Compound NOT metabolized	Compound NOT metabolized	Compound NOT metabolized	Compound NOT metabolized	Compound NOT metabolized	Compound NOT metabolized	Compound NOT metabolized	Compound NOT metabolized	Compound NOT metabolized	Compound NOT metabolized	Compound NOT metabolized	Compound metabolized	Compound NOT metabolized	Compound metabolized	Bacterial Biotransformation [21]: Compound NOT metabolized; Bacterial Biotransformation [22]: Compound NOT metabolized; Bacterial Biotransformation [23]: Compound metabolized; Bacterial Biotransformation [24]: Compound NOT metabolized; Bacterial Biotransformation [25]: Compound NOT metabolized; Bacterial Biotransformation [26]: Compound NOT metabolized

Source: ChEMBL document CHEMBL5724806, “Unraveling interindividual differences and functional consequences of gut microbial metabolism of immunosuppressants” (2024)
